IC50, melting point and K562-S cell viability data for ten compounds are collected here from article PMC9143943, “Novel Tyrosine Kinase Inhibitors to Target Chronic Myeloid Leukemia” (Molecules, 2022).

For one data set, the target named is T1, HO-1 (Rattus norvegicus, UniProt P06762).
T1 construct: This microsomal preparation represents the most native (i.e., closest to in vivo) form of HO-1; from tissue; host or cells: rat spleen microsomes (male Sprague-Dawley rats)
T1 sequence (P06762 1-289): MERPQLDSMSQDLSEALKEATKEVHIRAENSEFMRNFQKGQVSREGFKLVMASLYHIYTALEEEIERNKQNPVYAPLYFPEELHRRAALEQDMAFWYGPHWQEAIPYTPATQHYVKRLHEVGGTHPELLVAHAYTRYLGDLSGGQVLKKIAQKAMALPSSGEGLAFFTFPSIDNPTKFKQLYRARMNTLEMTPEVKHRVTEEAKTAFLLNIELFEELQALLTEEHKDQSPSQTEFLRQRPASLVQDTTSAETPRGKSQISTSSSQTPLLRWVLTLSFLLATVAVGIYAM
Nature of the data set: HO-1 enzymatic activity in microsomal fraction of rat spleen (bilirubin formation). The format is biochemical. As to the method: HO-1 activity was measured in microsomal fractions of rat spleen obtained as described in the experimental section. The activity was determined by measuring the bilirubin formation using the difference in absorbance at 464–530 nm. HO-1 inhibitors LS/0 and LS1/71 were used as reference compounds. […] Nevertheless, some observed differences in the results among the tested compounds allow us to discuss SAR as follows. HO-1 inhibitory activity mainly depends on the position of the oxybutylimidazole moiety and only to a lesser extent on the R substituent on the benzamide ring.
Since HO-1 protein is abundant in the rat spleen as well documented, rat spleen microsomal fraction prepared by differential centrifugation was used as source of the HO-1 protein. This microsomal preparation represents the most native (i.e., closest to in vivo) form of HO-1. Spleen microsomal fractions were obtained according to Ryter et al.. The experiments reported in the present paper complied with current Italian law and met the guidelines of the Institutional Animal Care and Use Committee of Ministry of Health (Directorate General for Animal Health and Veterinary Medicines, Italy) “Dosing of enzymatic activities in rat microsomes” (2018–2022), project code 02769.N.VLY. Male Sprague–Dawley albino rats (150 g body weight and age 45 d) used in our experimental conditions to obtain spleen microsomal fraction had free access to water and were kept at room temperature with a natural photo-period (12 h light–12 h dark cycle). To obtain a homogenate (15%, w/v) of spleens, each rat was sacrificed, and its spleen was excised and weighed. Spleens pooled from five rats were homogenized in 50 mM Tris buffer, pH 7.4, containing 0.25 M sucrose, using a Potter–Elvehjem homogenizing system with a Teflon pestle. The microsomal fraction of rat spleen homogenate was obtained by differential centrifugation: first centrifugation at 10,000× g for 20 min at 4 °C and a second centrifugation of the supernatant at 100,000× g for 60 min at 4 °C. The 100,000× g pellet (microsomes) was resuspended in 100 mM potassium phosphate buffer, pH 7.8, containing 2 mM MgCl2. The rat spleen fraction was divided into aliquots and stored at −80 °C for up to 2 months, and then its protein concentration was measured.
Biliverdin reductase was obtained by using rat liver cytosol. Three volumes of a solution 1.15% KCl w/v and Tris buffer 20 mM, pH 7.8, were used to homogenize on ice liver tissue. The 10,000× g supernatant was obtained by differential centrifugation: first centrifugation at 10,000× g for 20 min at 4 °C and a second centrifugation at […] at 4 °C to sediment the microsomes. The 10,000× g supernatant was stored in small amounts at −80 °C, and then its protein concentration was measured.
The HO-1 activity was determined by measuring the bilirubin formation using the difference in absorbance at 464–530 nm, as described by Ryter et al.. A final volume of 500 μL of incubation mixtures contained 20 mM Tris–HCl, pH 7.4, (1 mg/mL) microsomal extract, 0.5–2 mg/mL biliverdin reductase, 1 mM NADPH, 2 mM glucose 6-phosphate (G6P), 1 U G6P dehydrogenase, 25 μM hemin, and 10 μL of DMSO (or the same volume of DMSO solution of test compounds to a final concentration of 100, 10, and 1 μM). Enzymatic reactions were carried out in the dark for 60 min at 37 °C in a circulating water bath. The reactions were stopped by the addition of 500 μL of chloroform. After recovering the chloroform phase, the amount of bilirubin formed was measured with a double-beam spectrophotometer as OD464–530 nm (extinction coefficient, 40 mM/cm^−1 for bilirubin). The enzymatic activity was defined as Units (one Unit is the amount of enzyme catalyzing the formation of 1 nmol of bilirubin/mg protein/h).

Another data set concerns the target BCR-ABL kinase (Homo sapiens, UniProt P00519). Briefly: FRET-based Z'-Lyte kinase assay.
The subject of a further data set is K562-S cells. Briefly: In vitro cytotoxicity, NIL-sensitive K562 cells (trypan blue / XTT). The class given is cell-based. The note with it: 0.5 and 5 μM, 48 h. As to the method:
K562 cells (CCL-243 ATCC) were cultured in RPMI 1640 (L0500, Biowest, Riverside, MO, USA) supplemented with 10% Fetal Bovine Serum (FBS) and 1% penicillin–streptomycin and incubated at 37 °C in 5% CO2. K562 cells were seeded at a concentration of 1 × 10^5 cells/mL of culture medium. […] Briefly, cells were harvested by centrifugation and resuspended in 5 mL of fresh medium; then an aliquot of 10 μL was taken and mixed with Trypan Blue (93595, Sigma-Aldrich, Milan, Italy) stain (1:1). The mixture was applied on a counting chamber, and cells were counted on a binocular microscope. […] Once resistance was established (after approximately 9 months), K562-R and K562-S were treated with compounds at different concentrations.
Treatments were maintained for 48 h, and then cell viability was assessed: (a) with 0.2% (final concentration) trypan blue dye exclusion analysis which is used to determine the number of viable cells present in a cell suspension and (b) with XTT assay.
• (a) Briefly, the cell number was determined by counting the viable cells in a Burker counting chamber divided into 16 fields of 1 mm^2. […]

Setting [1] is: experimental HO-1 IC50 repeated in Table 3, read-out: IC50.
Setting [2] is: rat spleen microsomal fraction, read-out: HO-1 IC50 (μM) ± SD.

The IC50 is the concentration at which inhibition is half-maximal. Usually melting point stands for the temperature of the solid-liquid transition.

“Also recorded” adds a separate entry of the source. Read-outs that look alike come from different tables or passages of the source.

Chain of BCR-ABL kinase (P00519 whole entry): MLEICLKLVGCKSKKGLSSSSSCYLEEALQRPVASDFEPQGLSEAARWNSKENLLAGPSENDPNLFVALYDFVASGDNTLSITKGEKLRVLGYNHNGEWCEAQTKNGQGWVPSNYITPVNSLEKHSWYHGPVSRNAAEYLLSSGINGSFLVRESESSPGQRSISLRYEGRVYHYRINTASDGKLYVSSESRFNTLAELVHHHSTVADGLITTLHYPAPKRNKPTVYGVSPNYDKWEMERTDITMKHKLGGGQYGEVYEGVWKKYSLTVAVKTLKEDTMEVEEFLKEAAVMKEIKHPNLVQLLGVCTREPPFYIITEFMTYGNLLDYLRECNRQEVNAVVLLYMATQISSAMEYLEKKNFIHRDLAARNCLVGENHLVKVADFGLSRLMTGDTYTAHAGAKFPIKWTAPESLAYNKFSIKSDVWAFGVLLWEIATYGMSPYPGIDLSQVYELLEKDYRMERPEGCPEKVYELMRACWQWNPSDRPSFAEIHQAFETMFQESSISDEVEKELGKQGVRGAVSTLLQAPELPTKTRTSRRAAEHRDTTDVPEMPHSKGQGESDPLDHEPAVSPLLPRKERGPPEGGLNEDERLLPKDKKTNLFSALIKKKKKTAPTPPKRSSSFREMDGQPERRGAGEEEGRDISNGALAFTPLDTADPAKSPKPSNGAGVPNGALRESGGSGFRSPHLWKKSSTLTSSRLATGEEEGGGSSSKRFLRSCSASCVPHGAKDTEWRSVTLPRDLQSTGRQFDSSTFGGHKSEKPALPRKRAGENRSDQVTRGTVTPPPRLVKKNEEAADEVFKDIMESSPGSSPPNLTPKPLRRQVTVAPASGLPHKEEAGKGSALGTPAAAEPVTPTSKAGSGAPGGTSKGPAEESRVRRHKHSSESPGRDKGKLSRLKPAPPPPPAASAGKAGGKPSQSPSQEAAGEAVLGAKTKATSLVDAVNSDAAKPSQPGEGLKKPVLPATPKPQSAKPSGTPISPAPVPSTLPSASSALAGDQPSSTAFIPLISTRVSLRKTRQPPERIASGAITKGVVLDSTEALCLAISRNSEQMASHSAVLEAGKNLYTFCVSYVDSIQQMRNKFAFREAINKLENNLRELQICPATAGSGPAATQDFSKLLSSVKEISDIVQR
Description for BCR-ABL kinase: Novel compounds were tested to investigate their ability to inhibit both BCR-ABL TK and HO-1.

In turn, `Cc1ccc(C(=O)Nc2ccc(OCCCCn3ccnc3)cc2)cc1Nc1nccc(-c2cccnc2)n1` [Compound 1a, N-(4-(4-(1H-imidazol-1-yl)butoxy)phenyl)-4-methyl-3-((4-(pyridin-3-yl)pyrimidin-2-yl)amino)benzamide] returned a melting point of 140 to 142 °C. Also, the IC50 on HO-1 (setting [1]) is 44.8 µM. Moreover, at HO-1 (setting [2]), the 50% inhibitory concentration (IC50) amounted to 44.8 ± 2.58 µM. This compound also registered an IC50 on BCR-ABL kinase of 0.109 ± 0.0016 µM.
Compound `Cc1ccc(C(=O)Nc2cccc(OCCCCn3ccnc3)c2)cc1Nc1nccc(-c2cccnc2)n1` [Compound 1b, N-(3-(4-(1H-imidazol-1-yl)butoxy)phenyl)-4-methyl-3-((4-(pyridin-3-yl)pyrimidin-2-yl)amino)benzamide] gave a melting point of 118 to 120 °C. Further, the IC50 on HO-1 (setting [1]) was determined as 64.6 µM. At HO-1 (setting [2]), the IC50 came out at 64.6 ± 0.69 µM. The compound further showed an IC50 against BCR-ABL kinase of 4.19 ± 0.16 µM.
`Cc1ccc(C(=O)Nc2ccccc2OCCCCn2ccnc2)cc1Nc1nccc(-c2cccnc2)n1` [Compound 1c, N-(2-(4-(1H-imidazol-1-yl)butoxy)phenyl)-4-methyl-3-((4-(pyridin-3-yl)pyrimidin-2-yl)amino)benzamide]: the IC50 worked out at 149 µM on HO-1 (setting [1]), 149 ± 8.1 µM on HO-1 (setting [2]) and 14.6 ± 0.283 µM against BCR-ABL kinase.
As to `Cc1ccc(C(=O)Nc2cc(OCCCCn3ccnc3)ccc2Br)cc1Nc1nccc(-c2cccnc2)n1` [Compound 1d, N-(5-(4-(1H-imidazol-1-yl)butoxy)-2-bromophenyl)-4-methyl-3-((4-(pyridin-3-yl)pyrimidin-2-yl)amino)benzamide], the melting point fell in the range of 69.8 to 72 °C. In addition, the IC50 on HO-1 (setting [1]) was found to be 116 µM. Moreover, the IC50 at HO-1 (setting [2]) was determined as 116 ± 5.24 µM. Further, at BCR-ABL kinase, 16.2 ± 0.208 µM corresponded to half-maximal inhibition (IC50).
As to `Cc1ccc(C(=O)Nc2ccc(OCCCCn3ccnc3)c(Br)c2)cc1Nc1nccc(-c2cccnc2)n1` [Compound 1e, N-(4-(4-(1H-imidazol-1-yl)butoxy)-3-bromophenyl)-4-methyl-3-((4-(pyridin-3-yl)pyrimidin-2-yl)amino)benzamide], the figures for the 50% inhibitory concentration (IC50) on HO-1 (setting [1]), at HO-1 (setting [2]) and on BCR-ABL kinase were 55.1 µM, 55.1 ± 0.71 µM and 0.037 ± 0.0012 µM, respectively.
Consider `Cc1ccc(C(=O)Nc2ccc(Br)c(OCCCCn3ccnc3)c2)cc1Nc1nccc(-c2cccnc2)n1` [Compound 1f, N-(3-(4-(1H-imidazol-1-yl)butoxy)-4-bromophenyl)-4-methyl-3-((4-(pyridin-3-yl)pyrimidin-2-yl)amino)benzamide], for which the IC50 worked out at 100 µM on HO-1 (setting [1]), 100 ± 3.29 µM at HO-1 (setting [2]) and 5.21 ± 0.224 µM on BCR-ABL kinase.
With `Cc1ccc(C(=O)Nc2cc(Br)cc(OCCCCn3ccnc3)c2)cc1Nc1nccc(-c2cccnc2)n1` [Compound 1g, N-(3-(4-(1H-imidazol-1-yl)butoxy)-5-bromophenyl)-4-methyl-3-((4-(pyridin-3-yl)pyrimidin-2-yl)amino)benzamide], the melting point is 162 to 164.4 °C. Besides, the IC50 at HO-1 (setting [1]) is 51 µM. Moreover, the IC50 on HO-1 (setting [2]) stood at 51 ± 0.99 µM. For the same compound, the K562-S cell viability result in the data set on K562-S cells is “significant reduction; also recorded: cytotoxic properties similar to NIL and IM”. Further, the IC50 on BCR-ABL kinase was determined as 0.077 ± 0.0036 µM.
`Cc1ccc(C(=O)Nc2cc(OCCCCn3ccnc3)cc(C(F)(F)F)c2)cc1Nc1nccc(-c2cccnc2)n1` [Compound 1h, N-(3-(4-(1H-imidazol-1-yl)butoxy)-5-(trifluoromethyl)phenyl)-4-methyl-3-((4-(pyridin-3-yl)pyrimidin-2-yl)amino)benzamide] returned a melting point of 180.3 to 182.5 °C. Also, the IC50 on HO-1 (setting [1]) was found to be 65.4 µM. Also, the IC50 on HO-1 (setting [2]) is 65.4 ± 1.39 µM. For the same compound, the K562-S cell viability result with K562-S cells is “significant reduction; also recorded: cytotoxic properties similar to NIL and IM”. Further, the midpoint of inhibition against BCR-ABL kinase, the IC50, lay at 0.77 ± 0.042 µM.
As for `Cc1ccc(C(=O)Nc2ccc(Br)cc2OCCCCn2ccnc2)cc1Nc1nccc(-c2cccnc2)n1` [Compound 1i, N-(2-(4-(1H-imidazol-1-yl)butoxy)-4-bromophenyl)-4-methyl-3-((4-(pyridin-3-yl)pyrimidin-2-yl)amino)benzamide], the melting point lay within 94 to 96 °C. Also, the IC50 at HO-1 (setting [1]) is 83.4 µM. Also, the 50% inhibitory concentration (IC50) on HO-1 (setting [2]) was determined as 83.4 ± 2.3 µM. The compound further showed an IC50 at BCR-ABL kinase of 13.7 ± 0.139 µM.
Consider `Cc1ccc(OCCCCn2ccnc2)c(NC(=O)c2ccc(C)c(Nc3nccc(-c4cccnc4)n3)c2)c1` [Compound 1j, N-(2-(4-(1H-imidazol-1-yl)butoxy)-5-methylphenyl)-4-methyl-3-((4-(pyridin-3-yl)pyrimidin-2-yl)amino)benzamide], for which the IC50 is 3060 µM at HO-1 (setting [1]); roughly 3000 µM at HO-1 (rat spleen microsomal fraction, read-out: HO-1 IC50); 3060 ± 201 µM on HO-1 (setting [2]); 5.45 ± 0.223 µM on BCR-ABL kinase.
